Test results published in PMC11012793, “Mulberry Leaf Compounds and Gut Microbiota in Alzheimer’s Disease and Diabetes: A Study Using Network Pharmacology, Molecular Dynamics Simulation, and Cellular Assays” (International Journal of Molecular Sciences, 2024).

Molecular target: T1, protein tyrosine phosphatase 1B (PTP1B) (Homo sapiens, UniProt P18031)
T1 construct: gene PTPN1; catalytic domain (Met1-Glu298) of PTP1B (ΔPTP1B)
T1 sequence (P18031 1-298): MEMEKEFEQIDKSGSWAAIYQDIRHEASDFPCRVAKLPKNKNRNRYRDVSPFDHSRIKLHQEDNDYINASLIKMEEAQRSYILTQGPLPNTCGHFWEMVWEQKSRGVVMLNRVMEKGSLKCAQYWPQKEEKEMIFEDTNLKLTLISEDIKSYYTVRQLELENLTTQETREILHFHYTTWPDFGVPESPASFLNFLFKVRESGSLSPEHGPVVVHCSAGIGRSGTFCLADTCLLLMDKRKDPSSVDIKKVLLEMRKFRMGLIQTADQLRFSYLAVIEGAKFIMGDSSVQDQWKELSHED
Assay: p-NPP phosphatase assay with purified recombinant PTP1B catalytic domain, absorbance at […] nm
Format: biochemical

## O=c1c(O)c(-c2ccc(O)cc2)oc2cc(O)cc(O)c12 [kaempferol]
  IC50: 279 µM
